Key:
[1] = mushroom test meal, 8 g and 16 g mushroom powder; cited from earlier work
Drosophila melanogaster = experiment: survival under Paraquat-induced oxidative stress; type: in vivo; details: 10 mM Paraquat
Protocol: The effect of Agaricus Blazei without enrichment, with Vitamin D2 enrichment, pure Vitamin D2 and control (vehicle for the delivery) on the survival rate of Drosophila melanogaster under Paraquat-induced oxidative stress condition was tested. The study focused on the control of Paraquat induced oxidative stress/biologic death. Paraquat is a very potent oxidative stress inducing chemical and causes death in animals and plants by the toxicity of released free radicals. Paraquat (10 mM concentration) (Sigma Aldrich) was used to chemically induce oxidative stress. Paraquat is the trade name for N,N′-dimethyl-4,4′-bipyridinium dichloride, a widely used herbicide. Paraquat, a viologen, is quick-acting and non-selective, killing green plant tissue on contact. It is also toxic to humans when swallowed. This is the most standard chemical used in experimental induction of oxidative stress using the Drosophila model system. It catalyzes the formation of reactive oxygen species (ROS). Paraquat will undergo redox cycling in vivo, gets reduced by an electron donor such NADPH, before being oxidized by an electron receptor such as dioxygen to produce superoxide, a major ROS.
The following materials and methods were utilized. Vials containing 10 mM Paraquat (from Sigma Aldrich) in 5 ml of 1.2% Low melting point Agarose medium were prepared. A strip of half moist filter paper was inserted in the medium (with the wet end in). Yeast paste containing 1% concentration (w/w) of the various test materials (see above) mixed to homogeneity was prepared. Yeast paste without drug was used as control. Uniform aliquot (˜300 mg) of yeast paste with or without the test material) was applied to vials in such a way that yeast paste was on the glass surface and covered the dry end (top) of the filter paper strip. Freshly enclosed wild type isogenized Canton-S males and females were collected and starved on 1% agar medium for 5-6 hours. Four males and females were transferred to the vial containing 10 mM Paraquat in LMP agarose medium and yeast paste with +/− test material (8 flies per vial). 6 vials were used per experiment. Vials with flies were placed horizontally in a tray. The experiment was conducted at 25 degrees C. temperature. Flies were transferred once in 2 days and the number of flies surviving at each transfer was recorded.

[2] = test system: Alzheimer's disease mutant fruit fly (APP over-expression); experiment: survival and life span in Alzheimer's disease (AD) model flies; parameters: species or system Drosophila; details: in vivo
Source text: Type of Model (with specific Drosophila model of neurodegeneration). The targeted over/ectopic expression of APP in the brain using a UAS promoter driven APP transgene, induced by a specific GAL4 trans-driver in the brain of a Drosophila model system, was used for this Example.
The AD strain lives only for a few days after their eclosion (birth) as opposed to 65 days or more for wild type normal strains.
We determined the extension of life span in the mutant strain for each test compound. We used a specific GAL4 driver that induces the APP gene in the central brain area at high levels (see above) and results in a fully penetrant lethality within a 2-3 weeks period.

hemodialysis patients = details: human, in vivo; cited from earlier work
[3] = test system: vitamin D-deficient dialysis patients; details: 81 patients; cited from earlier work

Compound	bioavailability of ET from mushrooms [1]	time of ET peak in red blood cells after mushroom consumption [1]	effect on survival under Paraquat-induced oxidative stress (words) (Drosophila melanogaster)	survival rate of AD flies relative to control [2]	patients with a reduction in EPO dose after supplementation (hemodialysis patients)	survivability under Paraquat-induced oxidative stress (Drosophila melanogaster; 1% w/w in yeast paste, over 10 days, 25 degrees C)	effect on survival under Paraquat-induced oxidative stress (words) (Drosophila melanogaster; listed as Vitamin D2)	effect on survival under Paraquat-induced oxidative stress (words) (Drosophila melanogaster; listed as Vitamin D2 in its pure form)	patients able to reach 25-D levels of 30 ng/mL or greater [3]	patients requiring less EPO with supplementation [3]
C[N+](C)(C)[C@@H](Cc1c[nH]c(=S)[nH]1)C(=O)[O-] [ET, L-Ergothioneine]	bioavailable	2 h								
C=C1CC[C@H](O)C/C1=C/C=C1\CCC[C@]2(C)[C@@H]([C@H](C)CCCC(C)C)CC[C@@H]12 [Vitamin D3, cholecalciferol]			no beneficial effect	no such effect						
C=C1CC[C@H](O)C/C1=C/C=C1\CCC[C@]2(C)[C@@H]([C@H](C)/C=C/[C@H](C)C(C)C)CC[C@@H]12 [pure Vitamin D2, Ergocalciferol]			no effect	no such effect	64%	13%+/−3%	no beneficial effect	deleterious effect	44%	57%

Source: US20180021405A1, “NUTRITIONAL APPROACH TO THE CONTROL OF ANEMIA, DIABETES AND OTHER DISEASES OR CONDITIONS AND PREVENTION OF ASSOCIATED COMORBID STATES WITH THE USE OF ERGOTHIONEINE” (priority 2011, published 2018)
